{"source": "paper PMC11429909", "about": "“Protein Structure Inspired Discovery of a Novel Inducer of Anoikis in Human Melanoma” (Cancers, 2024)", "format_in_all_cases": "cell-based, human", "key": {"[1]": {"test_system": "pan-cadherin", "experiment": "Western blot for pan-cadherin, SK-MEL-5", "protocol": "(§1) After treatment of M14 and SK-MEL-5 cells with different concentrations of Dxr2-017 or vehicle for 3 or 8 days, as denoted, cell images were captured at 20X in a transmitted light channel using the EVOS™ M5000 Imaging System (Invitrogen (Waltham, MA, USA)). Western blots were performed as previously described by us. Briefly, cells were collected and lysed using RIPA lysis buffer (25 mM Tris-HCl pH 7.6, 150 mM NaCl, 1% NP-40, 1% sodium deoxycholate, and 0.1% SDS; Thermo Scientific^TM (Waltham, MA, USA), #89900), supplemented with protease and phosphatase inhibitor cocktail (Thermo Scientific^TM, #78442) and 1 mM of PMSF. Resultant Western blots were probed using antibodies against cleaved caspase 3 (Cell Signaling Technology (Danvers, MA, USA), #9664), pan-cadherin (Cell Signaling Technology, #4068), and β-actin (Santa Cruz (Santa Cruz, CA, USA), #sc-47778).\nThese findings led us to compare cleaved caspase 3 between adherent cells and floating cells. Cleaved caspase 3 is an indicator of programmed cell death, and its triggering by loss of cell attachment is an established means of detecting anoikis. Adherent cells were prepared as above. […]"}, "[2]": {"test_system": "SK-MEL-5", "experiment": "Eight-day colony formation assay, melanoma SK-MEL-5", "protocol": "In addition to screens, eight-day colony formation assays were conducted for certain experiments, as denoted. When measuring the effect of 5-fluorouracil (5FU) on HT29 colon cancer cells, the following final 5FU concentrations were examined: 0 (DMSO only), 0.0012, 0.012, 0.12, 0.82, 5.7, 20, and 40 µM. When measuring the effect of Dxr2-017 on melanoma cell growth, the following concentrations were examined: 0 (DMSO only), 0.001, 0.01, 0.1, 1.0, and 10.0 µM. Melanoma studies were performed on M14 and SK-MEL-5 human melanoma cell lines. For each Dxr2-017 concentration for each cell line, there were N = 3 replicates, and experiments were performed a total of 3 separate times (each with N = 3 replicates). The IC50 values were calculated using nonlinear regression analysis. Data from individual experiments were log-transformed and fitted to a dose–response curve using the four-parameter logistic model of GraphPad Prism 10 software. The IC50 values were determined using the dose–response inhibition function. IC50 values from each of three different experiments were used to calculate mean ± SEM."}, "[3]": {"test_system": "M14 cells", "experiment": "Adherent versus floating cell quantification from images, M14", "settings": "10 µM, 3-day treatment, mean ± SEM (N = 4), controls 16.3 ± 2.8%", "protocol": "as §1, with “Resultant Western blots were probed using antibodies against cleaved caspase 3 (Cell Signaling Technology (Danvers, MA, USA), #9664), pan-cadherin (Cell Signaling Technology, #4068), and β-actin (Santa Cruz (Santa Cruz, CA, USA), #sc-47778).” left out\nFigure 8 Dxr2-017 inhibits melanoma cell growth through induction of anoikis. […] Data are expressed as the percent of untreated control and are the mean ± SEM of three separate experiments. […] M14 and SK-MEL-5 cells were treated for eight days with 20 nM and 50 nM of Dxr2-017, respectively, and the phase of the cell cycle was determined by flow cytometry. […] (D) Adherent and floating cells were quantified from captured images. Data are the mean ± SEM (N = 4), expressed as a percentage to total cells. * Denotes p-value ≤ 0.05 compared to respective floating or attached cells. […]\nWe then assessed whether Dxr2-017 induced apoptosis. […]"}, "[4]": {"test_system": "SK-MEL-5 cells", "experiment": "Cell cycle analysis by flow cytometry, SK-MEL-5", "settings": "50 nM, eight days", "protocol": "(§2) A total of 1 × 10^4 M14 cells and 1 × 10^4 SK-MEL-5 cells were seeded into 10 cm culture dishes. Twenty-four hours later, cells were treated in replicates of N = 3, with Dxr2-017 at 20 nM for M14 and 50 nM for SK-MEL-5, or vehicle for controls for a total of eight days, with replacement of media, along with Dxr2-017 or vehicle, at day five. Cells were then collected, filtered to obtain single-cell suspensions, equal numbers of cells were fixed in 1 mL of 70% ethanol at 4 °C for 1 h, washed with PBS, and resuspended in 1 mL of Telford reagent (1 mM EDTA disodium salt, 2.5 U/mL RNAse A, 75 µM Propidium Iodide, and 0.1% Triton X-100 in PBS), and then incubated at 4 °C overnight. Cells were analyzed by flow cytometry (FACSCalibur analyzer, BD Biosciences). Cells were gated on forward scatter (FSC) versus side scatter (SCC) to remove debris, followed by gating of single cells using PI (FL2)-Area versus PI (FL2)-Width. Cell cycle analysis was performed on the PI (FL2)-Area parameter, and the percentages of cells within G0/G1, S, and G2/M phases were determined using Modfit LT 4.0.5."}, "[5]": {"test_system": "M14 cells", "experiment": "Cell cycle analysis by flow cytometry, M14", "settings": "20 nM, eight days", "protocol": "as §2"}}}
{"molecule": "c1ccc2sc(-c3ccc(CNc4ccc5nnnn5n4)o3)nc2c1", "note": "[Dxr2-017]", "values": [{"measurement": "cadherin expression", "setting": "[1]", "value": "decreased cadherin expression in a concentration-dependent manner"}, {"measurement": "IC50", "setting": "[2]; Homo sapiens, 192 h, SK-MEL-5 melanoma, mean ± SEM of three experiments", "value": "51 ± 11", "unit": "nM"}, {"measurement": "fold efficacy relative to bone marrow stem cells treated at 40 µM", "setting": "[2]; SK-MEL-5 IC50 versus eight-day bone marrow treatment at 40 µM", "value": "> 750", "unit": "fold"}, {"measurement": "floating cell population, percentage to total cells", "setting": "[3]", "value": "79.9 ± 7.4", "unit": "%"}, {"measurement": "effect on cell cycle parameters", "setting": "[4]", "value": "little-to-no change in cell cycle parameters"}, {"measurement": "effect on cell cycle parameters", "setting": "[5]", "value": "little-to-no change in cell cycle parameters"}]}
